Laboratory results published in ChEMBL document CHEMBL1138947, “Potent inhibitors of the Qi site of the mitochondrial respiration complex III” (J Med Chem, 2006).
Active and inactive are the calls of the source. The rule behind the calls is not given here.

Assays:
Parastagonospora nodorum [1] = experiment: Inhibition of Septoria nodorum growth in wheat at 40 ppm; assay type: functional, organism-based
[2] = target: T1, Mitochondrial complex II; succinate dehydrogenase (Septoria tritici, UniProt G4XX53+O42772); experiment: Inhibition of Septoria nodorum succinate dehydrogenase and Qi site of mitochondrial respiratory chain complex 3 by FMET2-3 assay; assay type: protein-complex assay, Parastagonospora nodorum
T1 sequence (G4XX53 whole entry): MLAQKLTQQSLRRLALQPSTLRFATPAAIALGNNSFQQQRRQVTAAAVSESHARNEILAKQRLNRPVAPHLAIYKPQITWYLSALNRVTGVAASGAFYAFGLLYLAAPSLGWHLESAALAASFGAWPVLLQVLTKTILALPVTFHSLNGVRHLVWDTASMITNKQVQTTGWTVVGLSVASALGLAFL
T1 sequence (O42772 whole entry): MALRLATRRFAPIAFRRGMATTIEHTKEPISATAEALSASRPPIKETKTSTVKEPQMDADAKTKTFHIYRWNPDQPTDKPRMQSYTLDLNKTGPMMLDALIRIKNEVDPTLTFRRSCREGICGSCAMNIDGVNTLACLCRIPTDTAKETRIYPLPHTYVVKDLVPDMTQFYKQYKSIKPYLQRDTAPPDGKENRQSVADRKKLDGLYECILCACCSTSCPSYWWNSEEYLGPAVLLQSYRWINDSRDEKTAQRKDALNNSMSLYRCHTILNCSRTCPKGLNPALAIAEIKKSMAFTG

Parastagonospora nodorum [3] = experiment: Inhibition of Septoria nodorum growth; assay type: functional

For `O=C(Nc1ccc(Oc2ccc(C(F)(F)F)cc2)cc1)c1sc2c[nH]nc2c1O`, the Activity (Parastagonospora nodorum [1]) was “inactive”, the IC50 [2] was 26 nM and the GR50 (Parastagonospora nodorum [3]) was 11.517 µM.

With `O=C(Nc1ccc(Oc2ccccc2)cc1)c1ccc2[nH]nnc2c1O` the Activity (Parastagonospora nodorum [1]) was “inactive” and the GR50 (Parastagonospora nodorum [3]) was >30 µM.

In the case of `O=C(Nc1ccc(Oc2ccccc2)cc1)c1ccc2[nH]cnc2c1O`, the Activity (Parastagonospora nodorum [1]) is reported as “inactive”, the IC50 [2] is reported as > 30000 nM and the GR50 (Parastagonospora nodorum [3]) is reported as >30 µM.

With `O=C(Nc1ccc(Oc2ccc(C(F)(F)F)cc2)cc1)c1ccc2[nH]nnc2c1O` the Activity (Parastagonospora nodorum [1]) was “inactive”, the IC50 [2] was 5 nM and the GR50 (Parastagonospora nodorum [3]) was >30 µM.

In the case of `O=C(Nc1ccc(Oc2ccc(C(F)(F)F)cc2)cc1)c1ccc2cn[nH]c2c1O`, the Activity (Parastagonospora nodorum [1]) is reported as “inactive”, the IC50 [2] is reported as 26 nM and the GR50 (Parastagonospora nodorum [3]) is reported as 0.343 µM.

`O=C(Nc1ccc(Oc2ccccc2)cc1)c1ccc2c[nH]nc2c1O` was tested, and the Activity (Parastagonospora nodorum [1]) was “inactive”, the IC50 [2] was 127 nM and the GR50 (Parastagonospora nodorum [3]) was 1.909 µM.

`O=C(Nc1ccc(Oc2ccccc2)cc1)c1ccc2nn[nH]c2c1O` gave an IC50 [2] of 32 nM.

`CCCCCC[C@H]1C(=O)O[C@H](C)[C@H](NC(=O)c2cccc(NC=O)c2O)C(=O)O[C@@H](C)[C@@H]1OC(=O)CC(C)C` [ANTIMYCIN A] was tested, and the Activity (Parastagonospora nodorum [1]) was “inactive”, the IC50 [2] was 2 nM and the GR50 (Parastagonospora nodorum [3]) was 0.033 µM.
